This is an account of results in patent US20260159527A1, “MACROCYCLIC BCL6 DEGRADERS” (DANA-FARBER CANCER INSTITUTE, INC., priority 2022, published 2026).

Like-named read-outs stand apart in the source and are kept apart here.

For data set [1] the following is noted: from C[C@@H]1CN(c2ncc(Cl)c(Nc3cc(OCC(=O)O)c4c(c3)[nH]c(=O)n4C)n2)C[C@H](N)C1(F)F; amide bond; 14-membered ring; HATU/DIEA; DMF; 141.0 mM; 20.0 °C; 2.0 h.
The conditions of data set [2]: 14-membered ring.
The target of data set [3] is T1, BCL6 (Homo sapiens, UniProt P41182).
T1 construct: Endogenous BCL6 was tagged with the 11-amino acid SmBiT through CRISPR/Cas9 gene editing; endogenous in cells; host or cells: Su-DHL-4 cells, CRISPR/Cas9 knock-in single cell clone
Kind of data set: HiBiT cellular degradation assay (Promega) in Su-DHL-4 cells. Format: cell-based. The settings on record: concentration to reach 50% degradation; endogenous BCL6 tagged with SmBiT in Su-DHL-4 cells; 24 hr of compound treatment; relative to DMSO control. On the procedure: DC50 (concentration to reach 50% degradation) values were determined from a cellular degradation assay (HiBiT, Promega™) in Su-DHL-4 cells (Table 1). Endogenous BCL6 was tagged with the 11-amino acid SmBiT through CRISPR/Cas9 gene editing and single cell clone selection. After 24 hr of compound treatment, cells were lysed and incubated with LgBiT protein to reconstitute intact nanoluciferase. Substrate was then added and relative luciferase units were measured. Degradation levels for each treatment were taken as a percentage compared to the control, 100% DMSO (Prism).
On the technique in general: HiBiT is a short tag that completes a luciferase, so light tracks the accessible tagged protein.

For data set [4] the following is noted: snar bond, 14-membered ring, DIEA, 80.0 °C, 12.0 h.

Turning to `C[C@@H]1CN2C[C@H](NC(=O)COc3cc(cc4[nH]c(=O)n(C)c34)Nc3nc2ncc3Cl)C1(F)F`, the ring closure, crude yield in data set [1] was determined as 59%.

Consider `C[C@@H]1CN2C[C@H](CCCOc3cc(cc4[nH]c(=O)n(C)c34)Nc3nc2ncc3Cl)C1(F)F` [Compound 26, (1^3S,1^3R)-2^5-chloro-1^4,1^4-difluoro-1^5,4^3-dimethyl-4^2,4^3-dihydro-4 H-5-oxa-3-aza-4(6,4)-benzo[d]imidazola-2(2,4)-pyrimidina-1 (1,3)-piperidinacyclooctaphan-4^2-one], for which the ring closure, isolated yield in data set [2] (from C[C@@H]1CNC[C@H](CCCOc2cc(Nc3nc(Cl)ncc3Cl)cc3[nH]c(=O)n(C)c23)C1(F)F, snar bond, DIEA, DMSO, 27.1 mM, 80.0 °C, 12.0 h) was determined as 64%. This compound registered a DC50 in data set [3] of 72 nM.

In data set [2] (from CC1CN(c2ncc(F)c(Nc3cc(OCC(=O)O)c4c(c3)[nH]c(=O)n4C)n2)CC(N)C1(F)F, amide bond, HATU/DIEA, DMF, 148.0 mM, 15.0 °C, 2.0 h), `CC1CN2CC(NC(=O)COc3cc(cc4[nH]c(=O)n(C)c34)Nc3nc2ncc3F)C1(F)F` (stereo not shown) showed a ring closure, isolated yield of 74%.

In data set [2] (from C[C@H]1CNC[C@@H](OCCOc2cc(Nc3nc(Cl)ncc3Cl)cc3[nH]c(=O)n(C)c23)C1(F)F, snar bond, DIEA, DMSO, 49.7 mM, 80.0 °C, 24.0 h), `C[C@H]1CN2C[C@@H](OCCOc3cc(cc4[nH]c(=O)n(C)c34)Nc3nc2ncc3Cl)C1(F)F` came in with a ring closure, isolated yield of 30%.

Consider `C[C@H]1CN2C[C@@H](CCCOc3cc(cc4[nH]c(=O)n(C)c34)Nc3nc2ncc3Cl)C1(F)F` [Compound 27, (1^3R, 1^5S)-2^5-chloro-1^4,1^4-difluoro-1^5,4^3-dimethyl-4^2,4^3-dihydro-4^1H-5-oxa-3-aza-4(6,4)-benzo[d]imidazola-2(2,4)-pyrimidina-1 (1,3)-piperidinacyclooctaphan-4^2-one], for which the ring closure, isolated yield in data set [2] (from C[C@H]1CNC[C@@H](CCCOc2cc(Nc3nc(Cl)ncc3Cl)cc3[nH]c(=O)n(C)c23)C1(F)F, snar bond, DIEA, DMSO, 40.6 mM, 80.0 °C, 12.0 h) was determined as 63%. Also, the DC50 in data set [3] was more than 400 nM.

`CNC(=O)COc1cc2cc3cc(c2n(C)c1=O)OCCO[C@@H]1C[C@H](C)CN(C1)c1ncc(Cl)c(n1)N3` [Compound 6, 2-(((1^3R, 1^5S)-2^5-chloro-1^5,4^1-dimethyl-4^2-oxo-4^1, 4^2-dihydro-5,8-dioxa-3-aza-4(6.8)-quinolina-2(2,4)-pyrimidina-1 (1,3)-piperidinacyclooctaphane-4^3-yl)oxy)-N-methylacetamide] had a ring closure, yield after HPLC in data set [4] (from CNC(=O)COc1cc2cc(Nc3nc(Cl)ncc3Cl)cc(OCCO[C@H]3CNC[C@@H](C)C3)c2n(C)c1=O, DMSO, 36.0 mM) of 12%. For the same compound, in data set [3], the DC50 was 0.61 nM.

The compound `CNC(=O)COc1cc2cc3cc(c2n(C)c1=O)OCCC[C@H]1CN(C[C@@H](C)C1(F)F)c1ncc(Cl)c(n1)N3` [Compound 4, 2-(((1^3S, 1^5R)-2^5-chloro-1^4,1^4-difluoro-13,41-dimethyl-4^2-oxo-4^1,4^2-dihydro-5-oxa-3-aza-4(6,8)-quinolina-2(2,4)-pyrimidina-1 (1,3)-piperidinacyclooctaphane-4^3-yl)oxy)-N-methylacetamide] came in with a ring closure, yield after HPLC in data set [4] (from CNC(=O)COc1cc2cc(Nc3nc(Cl)ncc3Cl)cc(OCCC[C@H]3CNC[C@@H](C)C3(F)F)c2n(C)c1=O, DMF, 140.0 mM) of 12%. The same compound showed a 50% degradation concentration (DC50) in data set [3] of 0.68 nM.

As to `C[C@@H]1C[C@H]2CN(C1)c1ncc(Cl)c(n1)Nc1cc(c3c(c1)[nH]c(=O)n3C)OCCO2`, the ring closure, isolated yield in data set [2] (from C[C@H]1CNC[C@@H](OCCOc2cc(Nc3nc(Cl)ncc3Cl)cc3[nH]c(=O)n(C)c23)C1, snar bond, DIEA, DMSO, 38.3 mM, 80.0 °C, 12.0 h) was found to be 12%.

In turn, `C[C@@H]1CN2C[C@H](NCCOc3cc(cc4[nH]c(=O)n(C)c34)Nc3nc2ncc3Cl)C1(F)F` [Compound 31, (1^3S,1^5R)-2^5-chloro-1^4,1^4-difluoro-1^5,4^3-dimethyl-4^2,4^3-dihydro-4^1H-5-oxa-3,8-diaza-4(6,4)-benzo[d]imidazola-2(2,4)-pyrimidina-1 (1,3)-piperidinacyclooctaphan-4^2-one] returned a 50% degradation concentration (DC50) in data set [3] of 7.5 nM.

The compound `C[C@@H]1CN2C[C@H](NCCOc3cc(cc4[nH]c(=O)n(C)c34)Nc3nc2ncc3F)C1(F)F` [Compound 38] returned a DC50 in data set [3] of 14.2 nM. Against the preceding compound, the DC50 is about 1.9-fold higher.

`C[C@@H]1CN2C[C@H](CCCOc3cc(cc4c3n(C)c(=O)c(=O)n4C[C@H]3C[C@H](O)C3)Nc3nc2ncc3Cl)C1(F)F` [Compound 18-1, (1^3S,1^5R)-2^5-Chloro-1^4,1^4-difluoro-4^1-(((1r,3S)-3-hydroxycyclobutyl)methyl)-1^5,4^4-dimethyl-4^1,4^2,4^3,4^4-tetrahydro-5-oxa-3-aza-4(7,5)-quinoxalina-2(2,4)-pyrimidina-1 (1,3)-piperidinacyclooctaphane-4^2,4^3-dione] registered a 50% degradation concentration (DC50) in data set [3] of 31 nM.

Turning to `C[C@@H]1CN2C[C@H](NCCOc3cc(cc4c3n(C)c(=O)n4C[C@H](O)C(C)(C)O)Nc3nc2ncc3Cl)C1(F)F` [Compound 42], in data set [3], the DC50 was 8.5 nM.

Regarding `C[C@H]1C[C@@H]2CN(C1)c1ncc(Cl)c(n1)Nc1cc(c3c(c1)[nH]c(=O)n3C)OCCO2`, the ring closure, isolated yield in data set [2] (from C[C@@H]1CNC[C@H](OCCOc2cc(Nc3nc(Cl)ncc3Cl)cc3[nH]c(=O)n(C)c23)C1, snar bond, DIEA, DMSO, 18.4 mM, 80.0 °C, 12.0 h) came out at 13%.

In turn, `CNC(=O)COc1cc2cc3cc(c2n(C)c1=O)OCCC[C@@H]1CN(C[C@H](C)C1(F)F)c1ncc(Cl)c(n1)N3` [Compound 5, 2-(((1^3R, 1^5S)-2^5-Chloro-1^4, 1^4-difluoro-1^5,4^1-dimethyl-4^2-oxo-4^1,4^2-dihydro-5-oxa-3-aza-4(6,8)-quinolina-2(2,4)-pyrimidina-1 (1,3)-piperidinacyclooctaphane-4^3-yl)oxy)-N-methylacetamide] displayed a 50% degradation concentration (DC50) in data set [3] of 150 nM.

For `C[C@H]1CN2C[C@@H](NCCOc3cc(cc4c3n(C)c(=O)n4CCC(C)(C)O)Nc3nc2ncc3Cl)C1(F)F` [Compound 15, (1^3R, 1^5S)-2^5-chloro-1^4,1^4-difluoro-4^1-(3-hydroxy-3-methylbutyl)-1^5,4^3-dimethyl-4^2,4^3-dihydro-41 H-5-oxa-3,8-diaza-4(6,4)-benzo[d]imidazola-2(2,4)-pyrimidina-1 (1,3)-piperidinacyclooctaphan-4^2-one], the half-maximal degradation concentration (DC50) in data set [3] stood at 82 nM. Against the preceding compound, the DC50 is about 1.8-fold lower.

The compound `C[C@@H]1C[C@H]2CN(C1)c1ncc(Cl)c(n1)Nc1cc(c3c(c1)[nH]c(=O)n3C)OCCN2` displayed a ring closure, isolated yield in data set [2] (from C[C@@H]1C[C@H](N)CN(c2ncc(Cl)c(Nc3cc(OCCCl)c4c(c3)[nH]c(=O)n4C)n2)C1, amine bond, K2CO3/NaI, DMF, 11.5 mM, 100.0 °C, 36.0 h) of 42%.

The compound `C[C@@H]1CN2C[C@H](CCCOc3cc(cc4c3n(C)c(=O)c(=O)n4C[C@H]3C[C@@H](O)C3)Nc3nc2ncc3Cl)C1(F)F` [Compound 18-2] returned a half-maximal degradation concentration (DC50) in data set [3] of 4.4 nM.

In data set [3], `C[C@@H]1C[C@H]2CN(C1)c1ncc(Cl)c(n1)Nc1cc(c3c(c1)n(CCC(C)(C)O)c(=O)n3C)OCCN2` [Compound 17, (1^3S,1^5R)-2^5-Chloro-4^1-(3-hydroxy-3-methylbutyl)-1^5,4^3-dimethyl-4^2,4^3-dihydro-41 H-5-oxa-3,8-diaza-4(6,4)-benzo[d]imidazola-2(2,4)-pyrimidina-1 (1,3)-piperidinacyclooctaphan-4^2-one] yielded a 50% degradation concentration (DC50) of 33 nM.

What is called DC50 is the concentration at which degradation of the target reaches its halfway point. The low end stands for a more potent degrader, the high end for a less potent degrader.
